For the assay, the target named is T1, Q-eTud34 (Drosophila melanogaster, UniProt Q9VE55).
T1 sequence (Q9VE55 959-1515): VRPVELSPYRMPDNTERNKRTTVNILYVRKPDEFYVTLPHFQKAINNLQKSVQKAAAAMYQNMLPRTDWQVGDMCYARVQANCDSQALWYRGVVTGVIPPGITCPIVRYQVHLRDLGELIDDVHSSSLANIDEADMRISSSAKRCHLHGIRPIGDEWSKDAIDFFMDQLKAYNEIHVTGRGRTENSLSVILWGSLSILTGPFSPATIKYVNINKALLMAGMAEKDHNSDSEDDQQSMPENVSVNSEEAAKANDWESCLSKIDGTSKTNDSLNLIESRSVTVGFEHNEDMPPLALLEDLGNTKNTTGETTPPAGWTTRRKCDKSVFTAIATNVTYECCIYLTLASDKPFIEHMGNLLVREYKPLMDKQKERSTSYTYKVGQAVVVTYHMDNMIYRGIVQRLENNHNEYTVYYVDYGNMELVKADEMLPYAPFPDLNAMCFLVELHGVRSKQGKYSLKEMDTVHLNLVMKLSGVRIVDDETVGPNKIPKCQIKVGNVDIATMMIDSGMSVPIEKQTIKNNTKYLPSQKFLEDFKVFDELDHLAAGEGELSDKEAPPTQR
As to the kind of experiment: thermal shift assay. The class given is binding. As to conditions: read-out: Tm increase at 10 mM.

SMILES strings stand for the structures.

`CN(C)C(=N)NCCC[C@H](N)C(=O)O` [aDMA]: the ΔTm at 10000 µM was 0.9 °C.

The values are drawn from paper doi:10.1101/2021.10.25.465661v1 (biorxiv, 2021).
